What was measured:
BSA = BSA (Bos taurus, UniProt P02769); assay: Bovine Serum Albumin Assay (BSA), inhibition of heat-induced protein denaturation; details: 20, 40, 60, 80 and 100 μg/mL; 0.4% w/v BSA, pH 6.4, 72° C. for 10 minutes; turbidity at 660 nm
Method: Bovine Serum Albumin Assay (BSA)
In vitro-inflammatory activities of the tested samples were determined using a modified method of the BSA assay reported by Williams et al. BSA solution (0.4%, w/v) was prepared in Tris Buffered Saline. The pH was adjusted to 6.4 with glacial acetic acid. Different dilutions of 20, 40, 60, 80, and 100 μg/mL of 1-cyclopropyl-6-fluoro-4-oxo-7-(4-((5-(quinolin-2-ylmethyleneamino)-2-thioxo-1,3,4-thiadiazol-3(2H)-yl)methyl)piperazin-1-yl)-1,4-dihydroquinoline-3-carboxylic acid (IV) the stock solutions were added to test tubes containing 1 mL of 0.4%, w/v BSA buffer solution. Both negative (solvent) and positive (aspirin) controls were assayed in a similar manner. The solutions were then heated in a water bath at 72° C. for 10 minutes and cooled for 20 minutes under laboratory conditions. The turbidity of the solutions (level of protein precipitation) was measured at 660 nm in Spectrophotometer (V-770 UV-Visible/NIR Spectrophotometer). The percentage inhibition of precipitation (protein denaturation) was determined relative to the negative control using the following equation:
[formula] [formula] Anti-Inflammatory Activity

Chain of BSA (P02769 25-607): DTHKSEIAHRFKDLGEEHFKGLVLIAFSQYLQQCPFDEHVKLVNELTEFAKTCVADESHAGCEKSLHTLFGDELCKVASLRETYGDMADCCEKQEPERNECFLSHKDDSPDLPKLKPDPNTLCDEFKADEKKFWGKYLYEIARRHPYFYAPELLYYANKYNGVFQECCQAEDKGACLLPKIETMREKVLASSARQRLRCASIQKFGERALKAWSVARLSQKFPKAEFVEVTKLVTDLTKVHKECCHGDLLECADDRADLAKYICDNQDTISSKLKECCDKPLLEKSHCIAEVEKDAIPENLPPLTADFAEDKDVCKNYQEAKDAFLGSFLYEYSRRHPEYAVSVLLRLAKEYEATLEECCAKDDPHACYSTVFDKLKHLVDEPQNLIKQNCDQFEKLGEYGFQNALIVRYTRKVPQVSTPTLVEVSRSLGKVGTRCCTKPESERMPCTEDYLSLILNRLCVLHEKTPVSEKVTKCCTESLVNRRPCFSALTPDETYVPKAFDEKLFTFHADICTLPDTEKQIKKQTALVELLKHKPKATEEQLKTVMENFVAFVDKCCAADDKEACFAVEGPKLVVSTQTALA

melting point: 232 to 235 °C | in vitro anti-inflammatory activity (inhibition of protein denaturation) (BSA): considerable anti-inflammatory effect
SMILES: O=C(O)c1cn(C2CC2)c2cc(N3CCN(Cn4nc(/N=C/c5ccc6ccccc6n5)sc4=S)CC3)c(F)cc2c1=O [IV, 1-cyclopropyl-6-fluoro-4-oxo-7-(4-((5-(quinolin-2-ylmethyleneamino)-2-thioxo-1,3,4-thiadiazol-3(2H)-yl)methyl)piperazin-1-yl)-1,4-dihydroquinoline-3-carboxylic acid]

From patent US11884659B1, “1-cyclopropyl-6-fluoro-4-oxo-7-(4-((5-(quinolin-2-ylmethyleneamino)-2-thioxo-1,3,4- thiadiazol-3(2H)-yl)methyl) piperazin-1-yl)-1,4-dihydroquinoline-3-carboxylic acid as an anti-inflammatory compound” (KING FAISAL UNIVERSITY, priority 2023, dated 2024)
